Our source for the mutational frequency, MIC and LD50 rats p.o values is patent publication US12036312B2, “Non-aqueous topical compositions comprising a halogenated salicylanilide” (priority 2016, dated 2024).

Converted amounts (≈) assume the structure as drawn. “And” between values parts separate entries of the source, which are not always exact repeats. Equal values may be shown once.

Data set [1] deals with MRSA 01, MRSA 15 (fusidic acid-resistant), MRSA 16 (mupirocin-resistant). Put plainly: Mutational frequency evaluation (spontaneous single-step mutations), Example 1. To be noted: at MIC×1 (Example 1). The format is cell-based, Staphylococcus aureus.
For data set [2], the system named is S. aureus. The data set can be described thus: MIC assay according to CLSI criteria, Example 2, S. aureus strains. It is filed as cell-based, Staphylococcus aureus. As to conditions: Staphylococcus aureus, read-out: MIC. An excerpt: Chosen for its relevance regarding bacterial skin infections, the methicillin-resistant S. aureus (MRSA) 01 strain was used as the primary test microorganism. This strain is a community-acquired MRSA clinical isolate of USA 300 type, from a skin abscess.
Two-hundred-four other MRSA and methicillin-sensitive S. aureus strains, and 4 Streptococcus pyogenes strains, were also included in the study. These covered fusidic acid- and mupirocin-resistant strains, these two types of resistance being of clinical relevance.
Strains were conserved in Luria Bertani (LB) Broth (S. aureus) or Brain Heart Infusion (BHI) (S. pyogenes) supplemented with glycerol 15% (v/v) at −80° C., and reactivated by isolation on LB (S. aureus) or BHI (S. pyogenes) agar plates. Strains were cultivated in Mueller Hinton (MH) Broth-cation adjusted (S. aureus) or BHI (S. pyogenes). All strains were cultivated aerobically (microaerobically for S. pyogenes strains) at 37° C.
Bacterial cultures were stopped in their exponential growth phase and plates were inoculated with the approximate concentration of 5×10^5 cells per well. Plates were incubated at 37° C. for 18 hours (S. aureus) or 24 hours (S. pyogenes). Optical density at a wavelength of 600 nm was measured at the end of the incubation time.

The conditions of data set [3]: published literature values; cited from earlier work.
The subject of data set [4] is S. aureus. The data set can be described thus: Minimum inhibitory concentration (MIC) assay, Example 1, S. aureus strains. To be noted: Staphylococcus aureus, MRSA, read-out: Mic100 S. aureus. The format is cell-based. The text has this:
The methicillin-resistant S. aureus (MRSA) 01 strain was used as the primary test microorganism as a representative bacteria commonly found in skin infections. This strain is a community-acquired MRSA clinical isolate of USA 300 type, from a skin abscess.
(§1) Twenty-one other MRSA and methicillin-sensitive S. aureus strains, and 4 Streptococcus pyogenes strains, were also included in the study (Table 2). These covered fusidic acid- and mupirocin-resistant strains, these two types of resistance being of clinical relevance.
(§2) Strains were conserved in Luria Bertani (LB) Broth (S. aureus) or Brain Heart Infusion (BHI) (S. pyogenes) supplemented with glycerol 15% (v/v) at −80° C., and reactivated by isolation on LB (S. aureus) or BHI (S. pyogenes) agar plates. Strains were cultivated in Mueller Hinton (MH) Broth-cation adjusted (S. aureus) supplemented with lysed horse blood 2.5% (v/v) (S. pyogenes). All strains were cultivated at 37° C., aerobically for S. aureus strains.
(§3) Bacterial cultures were stopped in their exponential growth phase and plates were inoculated with the approximate concentration of 10^3 cells per well. Plates were incubated at 37° C. for 18 hours (S. aureus) or 24 hours (S. pyogenes). Optical density at a wavelength of 600 nm was measured at the end of the incubation time. […] Experiments were performed at least as triplicate biological replicates with all strains.

The next data set relates to S. pyogenes. The data set can be described thus: Minimum inhibitory concentration (MIC) assay, Example 1, S. pyogenes strains. It is filed as cell-based. To be noted: Streptococcus pyogenes, read-out: Mic100 S. pyogenes. Here is the method:
as §1, §2, §3

As to `Cc1cc(C(C#N)c2ccc(Cl)cc2)c(Cl)cc1NC(=O)c1cc(I)cc(I)c1O` (stereo not drawn) [Closantel, closantel], in data set [1], the mutational frequency is listed as 2×10^−8.
As to `C/C(=C\C(=O)OCCCCCCCCC(=O)O)C[C@@H]1OC[C@H](C[C@@H]2O[C@H]2[C@@H](C)[C@H](C)O)[C@@H](O)[C@H]1O` [Mupirocin, mupirocin], the MIC worked out at 0.25 µg/mL (≈ 0.499 µM) with S. aureus [2] (MRSA, strain MRSA 01); 0.25 µg/mL (≈ 0.499 µM) in the data set with S. aureus [2] (MRSA, strain MRSA 02); 0.25 µg/mL (≈ 0.499 µM) with S. aureus [2] (MRSA, strain MRSA 03); 0.25 µg/mL (≈ 0.499 µM) in the data set on S. aureus [2] (MRSA, strain MRSA 04); 0.125 µg/mL (≈ 0.25 µM) with S. aureus [2] (MRSA, strain MRSA 05); 0.25 µg/mL (≈ 0.499 µM) with S. aureus [2] (MRSA, strain MRSA 06). Moreover, the MIC in the data set with S. aureus [2] (MRSA, strain MRSA 07) worked out at 0.25 µg/mL (≈ 0.499 µM); in the data set on S. aureus [2] (MRSA, strain MRSA 09), 0.25 µg/mL (≈ 0.499 µM); with S. aureus [2] (MRSA, strain MRSA 10) it was 0.25 µg/mL (≈ 0.499 µM); in the data set on S. aureus [2] (MRSA, strain MRSA 11) it was 0.5 µg/mL (≈ 0.999 µM); in the data set on S. aureus [2] (MRSA, strain MRSA 12), 0.125 µg/mL (≈ 0.25 µM); with S. aureus [2] (MRSA, strain MRSA 13), 0.25 µg/mL (≈ 0.499 µM). Besides, the MIC in the data set on S. aureus [2] (MRSA, strain MRSA 14) was determined as 0.125 µg/mL (≈ 0.25 µM); in the data set on S. aureus [2] (MRSA, strain MRSA 15), 0.25 µg/mL (≈ 0.499 µM); with S. aureus [2] (MRSA, strain MRSA 18), 0.125 µg/mL (≈ 0.25 µM); in the data set on S. aureus [2] (MRSA, strain MRSA 19), 0.25 µg/mL (≈ 0.499 µM); with S. aureus [2] (MRSA, strain MRSA 20), 0.25 µg/mL (≈ 0.499 µM); in the data set with S. aureus [2] (MRSA, strain MRSA 22) it was 0.25 µg/mL (≈ 0.499 µM). In addition, the MIC with S. aureus [2] (MRSA, strain MRSA 23) was found to be 0.25 µg/mL (≈ 0.499 µM); with S. aureus [2] (MRSA, strain MRSA 24), 0.25 µg/mL (≈ 0.499 µM); in the data set on S. aureus [2] (MRSA, strain MRSA 25) it was 0.25 µg/mL (≈ 0.499 µM); with S. aureus [2] (MRSA, strain MRSA 26), 0.5 µg/mL (≈ 0.999 µM); with S. aureus [2] (MRSA, strain MRSA 27), 0.25 µg/mL (≈ 0.499 µM); in the data set with S. aureus [2] (MRSA, strain MRSA 28), 0.5 µg/mL (≈ 0.999 µM). Also, the MIC in the data set on S. aureus [2] (MRSA, strain MRSA 29) was 0.25 µg/mL (≈ 0.499 µM); in the data set on S. aureus [2] (MRSA, strain MRSA 31) it was 0.25 µg/mL (≈ 0.499 µM); in the data set with S. aureus [2] (MRSA, strain MRSA 32) it was 0.25 µg/mL (≈ 0.499 µM); with S. aureus [2] (MRSA, strain MRSA 33) it was 0.25 µg/mL (≈ 0.499 µM); with S. aureus [2] (MRSA, strain MRSA 34) it was 0.25 µg/mL (≈ 0.499 µM); with S. aureus [2] (MRSA, strain MRSA 35), 0.5 µg/mL (≈ 0.999 µM). In addition, the MIC with S. aureus [2] (MRSA, strain MRSA 36) is 0.25 µg/mL (≈ 0.499 µM); with S. aureus [2] (MRSA, strain MRSA 37) it was 0.25 µg/mL (≈ 0.499 µM); with S. aureus [2] (MRSA, strain MRSA 39), 0.25 µg/mL (≈ 0.499 µM); in the data set on S. aureus [2] (MRSA, strain MRSA 40), 0.25 µg/mL (≈ 0.499 µM); in the data set with S. aureus [2] (MRSA, strain MRSA 75) it was 0.5 µg/mL (≈ 0.999 µM); with S. aureus [2] (MRSA, strain MRSA 85), 0.25 µg/mL (≈ 0.499 µM). In addition, the MIC in the data set on S. aureus [2] (MRSA, strain MRSA 86) is 0.25 µg/mL (≈ 0.499 µM); in the data set on S. aureus [2] (MRSA, strain MRSA 87), 0.25 µg/mL (≈ 0.499 µM); with S. aureus [2] (MRSA, strain MRSA 88), 0.25 µg/mL (≈ 0.499 µM); in the data set with S. aureus [2] (MRSA, strain MRSA 89) it was 0.25 µg/mL (≈ 0.499 µM); in the data set on S. aureus [2] (MRSA, strain MRSA 90) it was 0.25 µg/mL (≈ 0.499 µM); in the data set on S. aureus [2] (MRSA, strain MRSA 91), 0.25 µg/mL (≈ 0.499 µM). Also, the MIC in the data set with S. aureus [2] (MRSA, strain MRSA 92) amounted to 0.25 µg/mL (≈ 0.499 µM); in the data set with S. aureus [2] (MRSA, strain MRSA 93), 0.25 µg/mL (≈ 0.499 µM); in the data set on S. aureus [2] (MRSA, strain MRSA 94) it was 0.25 µg/mL (≈ 0.499 µM); with S. aureus [2] (MRSA, strain MRSA 95) it was 0.25 µg/mL (≈ 0.499 µM); in the data set on S. aureus [2] (MRSA, strain MRSA 96), 0.125 µg/mL (≈ 0.25 µM); in the data set on S. aureus [2] (MRSA, strain MRSA 97), 0.25 µg/mL (≈ 0.499 µM). Besides, the MIC in the data set on S. aureus [2] (MRSA, strain MRSA 98) stood at 0.5 µg/mL (≈ 0.999 µM); with S. aureus [2] (MRSA, strain MRSA 99), 0.5 µg/mL (≈ 0.999 µM); in the data set with S. aureus [2] (MRSA, strain MRSA 100), 0.5 µg/mL (≈ 0.999 µM); in the data set with S. aureus [2] (MRSA, strain MRSA 101) it was 0.25 µg/mL (≈ 0.499 µM); in the data set on S. aureus [2] (MRSA, strain MRSA 102), 0.25 µg/mL (≈ 0.499 µM); in the data set with S. aureus [2] (MRSA, strain MRSA 103), 0.25 µg/mL (≈ 0.499 µM). Besides, the MIC with S. aureus [2] (MRSA, strain MRSA 104) was 0.25 µg/mL (≈ 0.499 µM); in the data set on S. aureus [2] (MRSA, strain MRSA 105) it was 0.25 µg/mL (≈ 0.499 µM); in the data set on S. aureus [2] (MRSA, strain MRSA 106), 0.25 µg/mL (≈ 0.499 µM); in the data set on S. aureus [2] (MRSA, strain MRSA 107), 0.25 µg/mL (≈ 0.499 µM); in the data set on S. aureus [2] (MRSA, strain MRSA 108), 0.25 µg/mL (≈ 0.499 µM); with S. aureus [2] (MRSA, strain MRSA 109) it was 0.25 µg/mL (≈ 0.499 µM). The MIC with S. aureus [2] (MRSA, strain MRSA 110) came to 0.125 µg/mL (≈ 0.25 µM); in the data set with S. aureus [2] (MRSA, strain MRSA 111), 0.25 µg/mL (≈ 0.499 µM); in the data set with S. aureus [2] (MRSA, strain MRSA 112) it was 0.25 µg/mL (≈ 0.499 µM); with S. aureus [2] (MRSA, strain MRSA 113), 0.25 µg/mL (≈ 0.499 µM); in the data set on S. aureus [2] (MSSA, strain MSSA 01), 0.125 µg/mL (≈ 0.25 µM); in the data set on S. aureus [2] (MSSA, strain MSSA 02), 0.125 µg/mL (≈ 0.25 µM). In addition, the MIC with S. aureus [2] (NEWMAN, strain Newman) worked out at 0.25 µg/mL (≈ 0.499 µM).
For `O=C(Nc1cc(Cl)cc(Cl)c1O)c1c(O)c(Cl)cc(Cl)c1Cl` [Oxyclozanide, oxyclozanide], in data set [3], the LD50 rats p.o was 980 to 3500 mg/kg.
Turning to `O=C(Nc1ccc(Oc2ccc(Cl)cc2)c(Cl)c1)c1cc(I)cc(I)c1O` [Rafoxanide, rafoxanide], the MIC was 0.8 µg/mL and 1.25 µM with S. aureus [4]; 6.4 µg/mL and 10 µM in the data set on S. pyogenes. Moreover, the mutational frequency in data set [1] is recorded as 5×10^−9.
